Assay: xn = mol fraction of the nth substance listed
Conditions: 100 kPa, Liquid; for viscosity: Concentric cylinders viscometry; for mass density: Vibrating tube method

CCCCCCn1cc[n+](C)c1.O=[N+]([O-])[O-] [1-hexyl-3-methylimidazolium nitrate] + CCCCCCCCCCO
Conditions	mass density, 293.15 K [kg/m3]	mass density, 298.15 K [kg/m3]	mass density, 303.15 K [kg/m3]	viscosity, 293.15 K [mPa·s]	viscosity, 298.15 K [mPa·s]	viscosity, 303.15 K [mPa·s]	viscosity, 308.15 K [mPa·s]
x1 = 0.0818	855.4	851.9	848.4	18.62	15	11.86	9.51
x1 = 0.1583	879.2	875.7	872.2	24.27	18.75	14.39	10.86
x1 = 0.2414	904.7	901.3	897.7	33.34	23.93	17.58	12.85
x1 = 0.3482	937.1	933.6	930	50.7	33.81	22.91	16.03
x1 = 0.4414	964.8	961.4	957.8	73.79	47.42	30.27	20.04
x1 = 0.5593	999.2	995.8	992.2	119.12	74.3	45.39	28.44
x1 = 0.6481	1024.6	1021.3	1017.7	173.38	111.69	65.77	39.63
x1 = 0.7414	1050.8	1047.5	1044	261.82	171	98.7	60.67
x1 = 0.8496	1080.4	1077.3	1073.9	419.76	276.06	168.66	108.57
x1 = 0.9402	1104.7	1101.7	1098.4	625.17	417.45	267.65	183.87
x1 = 1	1120.3	1117.5	1114.3	804.17	545.25	369.14	257.59

From the NIST ThermoML archive (doi:10.1021/acs.jced.9b00507)
